Laboratory results from patent US12186332B2, “Methods for overcoming WNT/beta-catenin anti-cancer resistance in leukemia stem cells” (STOWERS INSTITUTE FOR MEDICAL RESEARCH, priority 2019, dated 2025).
Like-named read-outs stand apart in the source and are kept apart here.

What was measured:
[1] = system: human T-ALL blasts and pS^552-β-cat^+ LSCs; experiment: Patient-derived xenografts of MRD+ pediatric T-ALL treated with [Low]DXR; format: in vivo; conditions: [Low]DXR 5 days, two weeks after transplantation; Pt 057, Pt 062
Source text: Shown is T-ALL blasts (CD45^+ c-Kit^−ve CD3^+) in Pt 057. Graphs indicate frequency of human CD45^+ cells (%)+SD.
Graphs indicate frequency of human CD45^+ cells (%)±SD.

[2] = molecular target: T1, Akt:β-catenin interaction (EGFP-AKT and mCherry-β-catenin) (Mus musculus, UniProt Q02248); experiment: FRET assay (acceptor photobleaching), 293T cells; format: cell-based
T1 construct: host or cells: 293T cells
T1 sequence (Q02248 1-781): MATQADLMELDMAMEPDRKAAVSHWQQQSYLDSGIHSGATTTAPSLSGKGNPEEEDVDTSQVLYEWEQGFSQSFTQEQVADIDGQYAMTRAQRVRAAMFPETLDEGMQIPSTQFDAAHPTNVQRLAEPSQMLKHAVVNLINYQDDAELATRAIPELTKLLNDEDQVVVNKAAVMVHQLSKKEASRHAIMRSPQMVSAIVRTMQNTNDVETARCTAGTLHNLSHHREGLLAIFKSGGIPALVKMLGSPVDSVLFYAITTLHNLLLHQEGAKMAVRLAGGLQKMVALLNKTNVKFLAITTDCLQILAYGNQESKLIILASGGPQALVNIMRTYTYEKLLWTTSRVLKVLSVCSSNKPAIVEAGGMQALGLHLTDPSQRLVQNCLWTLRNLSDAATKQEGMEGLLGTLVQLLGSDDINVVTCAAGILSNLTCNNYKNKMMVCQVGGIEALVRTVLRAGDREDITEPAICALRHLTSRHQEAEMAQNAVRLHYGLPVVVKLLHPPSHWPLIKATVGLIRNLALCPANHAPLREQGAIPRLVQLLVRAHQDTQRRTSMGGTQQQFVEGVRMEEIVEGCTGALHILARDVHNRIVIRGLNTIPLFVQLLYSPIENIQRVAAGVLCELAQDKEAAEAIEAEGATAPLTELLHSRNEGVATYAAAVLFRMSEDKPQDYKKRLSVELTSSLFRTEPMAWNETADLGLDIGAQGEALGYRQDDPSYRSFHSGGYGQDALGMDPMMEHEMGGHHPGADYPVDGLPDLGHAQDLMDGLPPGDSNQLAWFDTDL
Procedure: Cells transfected with EGFP-AKT and mCherry-β-catenin were treated with vehicle or Doxorubicin at the indicated concentrations and FRET efficiency was determined.
FIG. 7C provides the FRET verification between Akt and β-catenin.
FRET measurement was performed by using the acceptor photobleaching method. Briefly, 293T cells were transfected with EGFP-AKT and mCherry-β-catenin (Addgene, #39531, #55001). A Perkin-Elmer Ultraview spinning disc system with a CSU-X1 Yokogawa disc was used for imaging. A 40×1.2 NA Plan-apochromatic objective was used, and emission was collected onto a C9100 Hamamatsu Photonics EM-CCD. EGFP was excited with a 488 nm laser, and emission was collected through a 500-555 nm band pass filter. mCherry was illuminated, and photobleached, with a 561 nm laser. Emission of mCherry was collected with a 580-650 nm band pass filter. 6 images of EGFP were acquired before and 8 images after bleaching of the mCherry with intense 561 nm light. After subtraction of camera background, the average intensity of EGFP in a region of interest spanning the bleached cell was determined in the 4 images before acceptor bleach (I1), or the 4 images after acceptor bleach (12). FRET efficiency is reported as 1−(I1/I2). Calculations were based on >500 cell images.

[3] = system: blast cells, LSCs and HSPCs of leukemic Pten:β-cat^Act mice; format: in vivo
Procedure: Leukemic mice were treated with vehicle, chemotherapy, [Low]DXR (5×0.5 mg/kg), clinical DXR (1×20 mg/kg), or chemotherapy+[Low]DXR as described in FIG. S2.
Average frequency of each population (n≥6 per group) is shown.
Absolute number/femur±SD of each population (n≥6 per group) is shown.
At 10 days post-treatment, BM was analyzed by flow cytometry to determine frequency of blast cells. Average frequency±SD (n 6 per group). Note that this experiment used clinical dose (normal) or [Low]
Alternatively, a single injection on day 1 of 0.8 or 2.5 μg/g of DXR-loaded nanoparticles (NanoDXR) was given with and without chemotherapy. At 10 days post-treatment, BM was analyzed by flow cytometry to determine frequency of LSCs. Shown is average frequency±SD (n 6 per group).
Alternatively, a single injection on day 1 of 0.8 or 2.5 μg/g of DXR-loaded nanoparticles (NanoDXR) was given with and without chemotherapy. At 10 days post-treatment, BM was analyzed by flow cytometry to determine frequency of HSPCs. Shown is average frequency±SD (n 6 per group).
Whole bone marrow was isolated from uninduced HSC-SCL-Cre^+ Pten^fx/fx βcat^fx(Exon3)/+ (Pn:β-cat^Act) mice and combined with an equal portion of Cre negative bone marrow from a littermate and transplanted into irradiated (10 Grays) B6.SJL-Ptprc^a Pepc^b/BoyJ (Ptprc) recipients.
Chemotherapy for the animal model consisted of Nelarabine (Selleck) and Dexamethasone (BioVision) administered daily for 5 days consecutively. 43.4 mg/ml Nelarabine was administered intravenously via the tail vain according to the formula: Body Weight (g)×5=volume to inject (μl), which yielded 217 mg/kg. 2.5 mg/ml Dexamethasone was injected intraperitoneally according to the formula: Body Weight (g)×4=volume to inject (μl), yielding 10 mg/kg. […] [Low] NanoDXR treatment used doxorubicin nanoparticles (Tran et al. 2014) administered as a single IV injection once per week on day 1 relative to above treatments using 0.8 mg/kg. Maintenance [Low] NanoDXR consisted of once per week injections of 0.4 mg/kg. Groups combining Nelarabine with Doxorubicin used a single injection containing both drugs. All drugs were solubilized in 45% (2-Hydroxypropyl)-p-cyclodextrin (HBC) or 0.9% NaCl.
Cells were collected from bone marrow (femur and tibia), spleen, peripheral blood, and thymus. For cell surface phenotyping, a lineage cocktail (Lin) was used including CD3 (for HSPC but not LSC analysis), CD4, CD8, Mac-1, Gr, B220, IgM, and Ter119 (eBioscience, San Diego, CA). Monoclonal antibodies against CD3 (separate fluorophore for LSC analysis), Sca-1, c-Kit, CD45.1, and CD45.2 were also used where indicated. Cell sorting and analysis were performed using an inFlux (BD), MoFlo (Dako, Ft. Collins, CO) and/or CyAn ADP (Dako, Ft. Collins, CO). Data analysis was performed using FlowJo software (Ashland, OR).

[4] = BM FACS 5 days post-treatment, DXR as [Low]DXR 5×0.5 mg/kg, chemotherapy = Nelarabine+Dexamethasone 5 days
[5] = clinical dose DXR 20 mg/kg alone

COc1cccc2c1C(=O)c1c(O)c3c(c(O)c1C2=O)C[C@@](O)(C(=O)CO)C[C@@H]3O[C@H]1C[C@H](N)[C@H](O)[C@H](C)O1 [DXR, doxorubicin]
engraftment of bulk blast cells [1]: not significantly changed
pS552-β-cat+ LSCs [1]: significantly reduced
concentration at which Akt:β-catenin interaction is inhibited [2]: < 1 µM
FRET between EGFP-AKT and mCherry-β-catenin ([2]; versus vehicle treated cells): decreased with increasing concentrations and exposure time
effect on LSCs [3, 4]: significantly reduced
effect on blast cells [3, 4]: no significant effect
blast cell reduction when DXR substitutes for Nelarabine ([3]; [Low]DXR with Dexamethasone, 10 days post-treatment): did not significantly reduce blast cells
HSPC frequency versus vehicle alone [3, 5]: not significantly different
increase of LSC frequency among surviving cells [3, 5]: 5 fold
increase of blast cell frequency among surviving cells [3, 5]: < 2 fold
toxicity in terms of absolute cell number [3, 5]: broadly toxic to all cells
blast cell reduction when DXR substitutes for Nelarabine ([3]; clinical equivalent dose DXR (5×4 mg/kg daily) with Dexamethasone, 10 days post-treatment): could substitute for a DNA-damaging agent in their reduction
reduction of LSCs ([3]; free DXR, 5 doses of 0.15 μg/g, 10 days post-treatment): ineffective
